Assay results as given in publication PMC8159961, “Exploring protein hotspots by optimized fragment pharmacophores” (Nature Communications, 2021).
Values joined by “and” are separate entries in the source; they are usually repeats but may differ in a detail not shown here. Identical values can stand only once. Like-named read-outs stand apart in the source and are kept apart here.

What was measured:
human thrombin = target: T1, human thrombin (Homo sapiens, UniProt P00734); experiment: Protease inhibitory assay, chromogenic substrate S-2238; assay type: biochemical; settings: for vinit: replicate values; for Ki: Thrombin, one of two values averaged in Supplementary Data 1, read-out: Ki
T1 construct: human thrombin; purchased Sigma-Aldrich

bovine factor Xa = target: T2, bovine factor Xa (Bos taurus, UniProt P00743); experiment: Protease inhibitory assay, chromogenic substrate S-2222; assay type: biochemical; settings: cmpd conc 200 µM; for vinit: replicate values; for Ki: FactorXa, one of two values averaged in Supplementary Data 1, read-out: Ki
T2 construct: bovine factor Xa, Chromogenix, 2 nkat/mL; purchased Chromogenix

[1] = Thrombin primary screening, substrate 40 µM, cmpd conc 500 µM
[2] = FactorXa primary screening, substrate 100 µM
[3] = FactorXa Ki determination, substrate 100 µM
[4] = FactorXa Ki determination, substrate 200 µM
[5] = Thrombin Ki determination, substrate 20 µM, cmpd conc 200 µM
[6] = Thrombin Ki determination, substrate 40 µM, cmpd conc 200 µM

T2 sequence (P00743 234-492 limits assumed): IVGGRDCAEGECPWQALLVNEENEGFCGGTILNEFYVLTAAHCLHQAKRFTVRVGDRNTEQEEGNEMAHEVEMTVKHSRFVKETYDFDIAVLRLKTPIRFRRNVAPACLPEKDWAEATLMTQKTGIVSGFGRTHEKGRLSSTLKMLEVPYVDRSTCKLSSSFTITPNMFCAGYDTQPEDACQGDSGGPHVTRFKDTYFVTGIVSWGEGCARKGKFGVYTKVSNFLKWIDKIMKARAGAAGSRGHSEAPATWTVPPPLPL
T2 sequence (P00743 41-180 partner limits assumed): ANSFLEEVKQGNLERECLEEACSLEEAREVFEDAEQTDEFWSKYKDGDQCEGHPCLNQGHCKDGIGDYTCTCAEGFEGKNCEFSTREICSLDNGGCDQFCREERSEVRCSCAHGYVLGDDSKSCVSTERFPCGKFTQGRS

Row | Compound | V0 / Vi (human thrombin; [1]) | vinit (human thrombin; [1]) | V0 / Vi (bovine factor Xa; [2]) | vinit (bovine factor Xa; [2]) | other results
1 | N#Cc1ccc(C(=O)N2CCOCC2)cc1 [SX-E10] | 1.00 | 33.091 and 29.782 | 1.00 | 14.2 and 14.8 | –
2 | Oc1ccc(C2CCNCC2)cc1 [SX-E11] | 1.00 | 31.345 and 31.818 | 0.73 | 18.742 and 20.658 | –
3 | O=C(c1ccccc1F)N1CCNCC1 [SX-E12] | 0.98 | 32.036 and 31.782 | 1.28 | 11.3 | V0 / Vi (bovine factor Xa; [3]): 1.26; vinit, avrg. (bovine factor Xa; [3]): 12.944; vinit (bovine factor Xa; [3]): 12.386 and 12.902 and 13.544; V0 / Vi (bovine factor Xa; [4]): 1.17; vinit (bovine factor Xa; [4]): 30.668 and 30.24 and 32.808; Ki (bovine factor Xa; substrate 100 µM): 482 µM; Ki (bovine factor Xa; substrate 200 µM): 538 µM
4 | COC(=O)c1c(C)nc(C2CC2)[nH]c1=O [SX-F1] | 1.06 | 25.964 and 29.418 | 0.96 | 17.6 and 18.945 | –
5 | N#CC1CCS(=O)(=O)C1 (stereo not shown) [SX-F2] | 0.97 | 30.436 and 30.255 | 0.97 | 17.745 and 18.291 | –
6 | O=C(O)c1cnc(-c2ccccc2)s1 [SX-F3] | 1.06 | 26.545 and 28.873 | 1.02 | 17.382 and 16.873 | V0 / Vi (human thrombin; [5]): 1.08; vinit, avrg. (human thrombin; [5]): 24.620; vinit (human thrombin; [5]): 23.206 and 25.134 and 25.52; V0 / Vi (human thrombin; [6]): 1.05; vinit, avrg. (human thrombin; [6]): 32.167; vinit (human thrombin; [6]): 32.686 and 32.577 and 31.24; Ki (human thrombin; substrate 20 µM, cmpd conc 200 µM): 297 µM; Ki (human thrombin; substrate 40 µM, cmpd conc 200 µM): 245 µM
7 | N#CCCN1CCc2ccccc21 [SX-F4] | 1.01 | 31.2 and 28.109 | 1.01 | 16.857 and 17.357 | –
8 | O=C(O)c1cccc(Nc2ncccn2)c1 [SX-F5] | 1.09 | 26.836 and 28 | 0.98 | 17.143 and 18.071 | –
9 | O=C(Nc1ccccc1)C1CC1 [SX-F6] | 0.98 | 29.527 and 31.309 | 0.98 | 18 and 17.071 | –
10 | Oc1nnc(-c2ccccc2)o1 [SX-F7] | 0.99 | 31.527 and 31.273 | 1.07 | 16.182 and 17.345 | –
11 | Cc1nccn1Cc1cccc(C#N)c1 [SX-F8] | 0.91 | 34 and 33.891 | 0.98 | 18.582 and 18 | –
12 | CC(CN)N1CCc2sccc2C1 (stereo not shown) [SX-F9] | 1.01 | 34.291 and 27.273 | 0.97 | 18.364 and 18.582 | –
13 | NCC1(c2ccccc2)CCOCC1 [SX-F10] | 0.89 | 36.218 and 34.182 | 0.94 | 14.6 and 16.3 | –
14 | Oc1cnc(-c2ccccc2)nc1 [SX-F11] | 1.02 | 30.836 and 30.8 | 1.00 | 14.672 and 14.2 | –
15 | Cc1cc(C)c2c(=O)[nH]n(C)c2n1 [SX-F12] | 0.97 | 31.745 and 32.764 | 1.09 | 11.4 and 15 | –
16 | COc1ccc(C2=CCNCC2)cc1 [SX-G1] | 1.03 | 31.055 and 32.691 | 0.93 | 19.4 and 17.2 | –
17 | Cn1c(CO)nc2ccccc21 [SX-G2] | 1.00 | 32.764 and 33.018 | 0.96 | 18 and 17.3 | –
18 | CN(C)c1cc(CN)ccn1 [SX-G3] | 0.92 | 35.564 and 35.891 | 0.93 | 17.9 and 18.5 | –
19 | O=C(NC1CC1)c1ccccc1O [SX-G4] | 1.01 | 31.745 and 33.345 | 0.96 | 17.5 and 17.8 | –
20 | c1ccc2sc(N3CCNCC3)nc2c1 [SX-G5] | 1.04 | 31.164 and 32.073 | 1.01 | 16.1 and 17.4 | –

Row | Compound | V0 / Vi (human thrombin; [1]) | vinit (human thrombin; [1]) | V0 / Vi (bovine factor Xa; [2]) | vinit (bovine factor Xa; [2]) | other results
21 | O=C(O)C1CCCN(C(=O)N2CCCC2)C1 (stereo not shown) [SX-G6] | 1.18 | 27.345 and 28.364 | 1.09 | 16.1 and 15 | –
22 | O=C1CCN(c2ccncc2)CC1 [SX-G7] | 0.90 | 36.109 and 37.055 | 1.03 | 17.5 and 15.6 | –
23 | O=C1CCN(c2ccccn2)CC1 [SX-G8] | 0.99 | 33.236 | 0.97 | 18.3 and 16.6 | –
24 | Nc1ccc(-c2ccccc2)cc1C(=O)O [SX-G9] | 1.08 | 29.309 and 31.745 | 1.04 | 16.3 | –
25 | O=C(CN1CCCC1)c1ccccc1Cl [SX-G10] | 0.99 | 33.345 and 33.273 | 1.00 | 17.7 and 16.3 | –
26 | CCc1nccn1CC(=O)O [SX-G11] | 1.02 | 32.764 and 31.636 | 1.08 | 16.214 and 15.4 | –
27 | CS(=O)(=O)Nc1ccc(C(=O)O)cc1 [SX-G12] | 1.06 | 31.418 and 30.764 | 1.01 | 17.2 and 16.5 | –
28 | O=C(O)c1ccc(CN2CCOCC2)cc1 [SX-H1] | 1.07 | 31.127 and 30.255 | 0.98 | 17.6 and 17 | –
29 | O=C(O)CC1CCC(=O)N1 (stereo not shown) [SX-H2] | 1.12 | 30.691 and 28 | 1.01 | 17.5 and 16.3 | –
30 | FC1(F)CNCC(F)(F)O1 [SX-H3] | 0.99 | 34.218 and 32.291 | 0.94 | 18.2 and 17.8 | –
31 | Fc1ccc2c(C3CCNCC3)c[nH]c2c1 [SX-H4] | 0.95 | 34.909 and 34.764 | 0.92 | 18 and 18.9 | –
32 | Oc1ccc(-n2cncn2)cc1 [SX-H5] | 1.00 | 33.091 and 32.545 | 1.05 | 16 and 16.3 | –
33 | Cn1nc(C(F)(F)F)cc1O [SX-H6] | 1.11 | 29.345 and 30.109 | 1.13 | 14.3 and 15.9 | –
34 | O=C1CCC(=O)N(c2ccccc2)N1 [SX-H7] | 1.06 | 30 and 29.357 | 0.97 | 16.4 | –
35 | O=C1CC(CSc2ccc(Cl)cc2)=NN1 [SX-H8] | 0.97 | 33.5 and 31.286 | 0.99 | 15.686 and 16.6 | –
36 | O=C(c1ccccc1)N1CCC(CO)CC1 [SX-H9] | 1.03 | 31.714 and 29.571 | 0.93 | 17.7 and 16.5 | –
37 | O=C1CSC(Nc2ccc(F)cc2)=N1 [SX-H10] | 1.13 | 26.786 and 28.857 | 1.14 | 14.6 and 13.3 | –
38 | Cc1ccc(CCNc2ccccc2)cn1 [SX-H11] | 1.00 | 31.714 and 31.42 | 0.99 | 15.4 and 17 | –
39 | O=C1NC(=O)/C(=C\c2cccs2)N1 [SX-H12] | 1.13 | 29.929 and 26.071 | 1.27 | 12.7 and 12.5 | vinit, avrg. (bovine factor Xa; [3]): 13.665; vinit (bovine factor Xa; [3]): 13.174 and 12.668 and 15.15; V0 / Vi (bovine factor Xa; [4]): 1.24; vinit, avrg. (bovine factor Xa; [4]): 27.296; vinit (bovine factor Xa; [4]): 25.633 and 28.073 and 28.18; Ki (bovine factor Xa; substrate 100 µM): 552 µM; Ki (bovine factor Xa; substrate 200 µM): 380 µM
